Test results published in patent US5373009A, “Dibenzofuranyl esters of N-heterocyclic carboxylic acids” (priority 1994, dated 1994).

Columns and labels:
[1] = molecular target: T1, cholesterol ester hydrolase (CEH) (Bos taurus, UniProt P30122); test: In vitro inhibition of cholesteryl ester formation by cholesterol esterase (CEH); assay type: biochemical; conditions: 37° C.; cholesterol and oleic acid; cholesterol esterase from bovine pancreas
T1 construct: purchased Sigma Company, St. Louis, Mo., U.S.A. C-1892; host or cells: bovine pancreas
T1 sequence (P30122 19-597): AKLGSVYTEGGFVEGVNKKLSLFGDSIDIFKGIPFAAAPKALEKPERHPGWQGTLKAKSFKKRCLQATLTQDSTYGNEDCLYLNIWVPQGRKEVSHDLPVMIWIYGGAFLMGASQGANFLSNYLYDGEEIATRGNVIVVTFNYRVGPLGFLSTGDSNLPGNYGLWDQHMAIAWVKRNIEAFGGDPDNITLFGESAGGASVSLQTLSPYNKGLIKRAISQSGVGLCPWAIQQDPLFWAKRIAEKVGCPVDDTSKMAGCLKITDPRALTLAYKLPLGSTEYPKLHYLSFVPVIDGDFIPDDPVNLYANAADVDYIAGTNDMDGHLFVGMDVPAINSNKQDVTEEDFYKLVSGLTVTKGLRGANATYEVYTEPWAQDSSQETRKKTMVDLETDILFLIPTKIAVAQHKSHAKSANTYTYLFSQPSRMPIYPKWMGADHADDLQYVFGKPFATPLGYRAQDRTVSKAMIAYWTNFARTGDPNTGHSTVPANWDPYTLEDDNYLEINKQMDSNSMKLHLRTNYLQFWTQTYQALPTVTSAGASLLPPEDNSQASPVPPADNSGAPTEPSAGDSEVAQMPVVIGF
Experimental: The ability of the compounds of this invention to inhibit the formation of cholesteryl esters and thereby interfere with and prevent assimilation of cholesterol into the lymphatic system and ultimately the blood stream was established by incubating the compounds at 37° C. with a mixture of cholesterol and oleic acid in the presence of buffered cholesterol esterase [(EC 3.1.1.13) Sigma Company, St. Louis, Mo., U.S.A., No. C-1892, from bovine pancreas] and measuring the amount of ester formed, according to the procedure of Field, J. of Lipid Research, 25, 389 (1984).

[2] = system: absorption of 14C-cholesterol; test: In vivo cholesterol absorption in normal rats (serum radioactivity after oral [4-14C] cholesterol); conditions: serum radioactivity at 6 hr, vs control
Experimental: The in vivo cholesterol absorption studies were conducted in normal rats by oral administration of the compound being tested in propylene glycol and olive oil followed by oral administration of [4-^14 C] cholesterol in propylene glycol and olive oil, otherwise following the procedure of Cayen et al., J. Lipid Res. 20, 162 (1979). The serum radioactivity was measured at six hours after dosing. The results of this study are reported in Table I as percent decrease compared to control.

CEH = conditions: prior art statement; cited from earlier work

Structure (SMILES)	IC50 [1] [µM]	Effect on Absorption of ^14 C-chol-6 hr-normal rat, % Decrease ([2]; 10 mg/kg) [%]	CEH inhibitor (in words) (CEH)	Effect on Absorption of ^14 C-chol-6 hr-normal rat, % Decrease ([2]; 3 mg/kg) [%]
O=C(Oc1ccc2oc3ccccc3c2c1)N1CCSCC1 [Example 2, 4-Thiomornholinecarboxylic acid 2-dibenzofuranyl ester]	0.51	16	–	–
CNC(=O)OC1CCN(C(=O)Oc2ccc(Oc3ccccc3)cc2)CC1 [4-[[methylamino)carbonyl]oxy]-1-piperidinecarboxylic acid 4-phenoxyphenyl ester]	–	–	CEH inhibitor	–
O=C(Oc1ccc2oc3ccccc3c2c1)N1CCC2(CCCC2)CC1 [Example 4, 8-Azaspiro[4,5]decane-8-carboxylic acid 2-dibenzofuranyl ester]	15	–	–	55
CC1(C)CCN(C(=O)Oc2ccc3oc4ccccc4c3c2)CC1 [Example 3, 4,4-Dimethyl-1-piperidinecarboxylic acid 2-dibenzofuranyl ester]	6.5	–	–	44
